Source: US9408856B2, “Topical steroidal formulations” (Temple University—Of The Commonwealth System of Higher …, priority 2008, dated 2016)
Where “and” joins values, the source holds several entries; their conditions need not be identical. Identical values can stand only once.

Test system: TPA-stimulated epidermal DNA synthesis in mouse epidermis
Experiment: TPA-induced epidermal DNA synthesis in mouse epidermis, transdermal fluasterone
Format: in vivo, CD-1 mice
Settings: for cpm/μg DNA: 20 h, single mice and group mean
Procedure: In dose-response experiments the anti-hyperplastic efficacy of fluasterone in TPA-treated mouse epidermis to determine bioavailability following different routes of administration was measured. Mice were treated with a single dose of fluasterone (either orally, subcutaneously, or transdermally) followed by a single application of TPA to the shaved back one hour latter. In case of transdermal administration, fluasterone is applied in a topical formulation to the shaved abdomen to allow for systemic absorption to the back of the animal. Twenty hours after TPA application, the mice are injected with 60 μCi of [3H] thymidine, sacrificed 20 minutes later, and a 2×2 cm2 of skin from the shaved back is excised and processed for the determination of the amount of [3H] thymidine incorporated per unit of epidermal DNA. (Hennings et. al., Cancer Res. 28:543-552, 1968).
Female CD-1 mice, 40-43 days old, were obtained from Charles River Laboratories, Kingston, N.Y. The mice were housed two per cage in plastic shoebox cages on Absorbdri bedding with 12 hours of alternating light and dark in the Central Animal Facility. The mice had ad libitum access to Purina 5015 chow and acidified tap water (pH S 2.6). The mice were allowed to acclimate to the facility for approximately two weeks prior to use in an experiment. […]
The mice were weighed, marked with magic marker on the tail, and shaved on the back and the abdomen one day prior to treatment. Only those mice showing no hair regrowth were used in the experiment. Fluasterone was applied to the shaved abdomen one hour before TPA was applied to the shaved back. The mice were anesthetized and on their backs prior to topical application of TPA. […]
The mice were anesthetized with Isoflurane, and then were given an intramuscular injection of 0.1 mL solution of ketamine (50 mg/kg), xylazine (10 mg/kg) and atropine (0.1 mg/kg). Approximately 10 minutes after the i.m. injection (after the mice could not turn over when placed on their backs), the mice were treated with 5 μL of a 12.5 mg/mL fluasterone/carbitol solution to give a dose of 2.5 mg/kg. The mice were anesthetized and on their backs for approximately 30 minutes after application of fluasterone/carbitol solution. One hour after the application of fluasterone/carbitol solution, 2 μg of TPA dissolved in. 0.2 mL of acetone was applied to the shaved area on the back of each mouse. […]
The mice were anesthetized with Isoflurane, and then were given an intramuscular injection of 0.1 mL solution of ketamine (50 mg/kg), xylazine (10 mg/kg) and atropine (0.1 mg/kg). Approximately 10 minutes after the i.m. injection (after the mice could not turn over when placed on their backs), the mice were treated with 2.5 μl, of a 12.5 mg/mL fluasterone/carbitol solution to give a dose of 1.25 mg/kg. The mice were anesthetized and on their backs for approximately 30 minutes after application of fluasterone/carbitol solution. One hour after the application of fluasterone/carbitol solution, 2 μg of TPA dissolved in 0.2 mL of acetone was applied to the shaved area on the back of each mouse.
The mice were anesthetized with Isoflurane, and then were given an intramuscular injection of 0.1 mL solution of ketamine (50 mg/kg), xylazine (10 mg/kg) and atropine (0.1 mg/kg). Approximately 10 minutes after the i.m. injection (after the mice could not turn over when placed on their backs), the mice were treated with 10 μL of a 12.5 mg/mL fluasterone/Cremophor EL solution to give a dose of 5 mg/kg. The mice were anesthetized and on their backs for approximately 30 minutes after application of fluasterone/Cremophor EL solution. One hour after the application of fluasterone/Cremophor EL solution, 2 μg of TPA dissolved in 0.2 mL of acetone was applied to the shaved area on the back of each mouse.
The mice were anesthetized with Isoflurane, and then were given an intramuscular injection of 0.1 mL solution of ketamine (50 mg/kg), xylazine (10 mg/kg) and atropine (0.1 mg/kg). […]

Row | SMILES | cpm/μg DNA (Cremophor EL solution, 1.25 mg/kg transdermal (abdomen) 1 h before 2 μg TPA (back), 1.25 mg/kg) | cpm/μg DNA (Cremophor EL solution, 5 mg/kg transdermal (abdomen) 1 h before 2 μg TPA (back), 5 mg/kg) | lowest effective dose (Tween 80:ethanol (50:50 v/v) solution, transdermal) [mg/kg] | cpm/μg DNA (carbitol solution, 1.9 mg/kg transdermal (abdomen) 1 h before 2 μg TPA (back), 1.9 mg/kg) | cpm/μg DNA (carbitol solution, 5 mg/kg transdermal (abdomen) 1 h before 2 μg TPA (back), 5 mg/kg) | cpm/μg DNA (ethanol:limonene:isopropyl myristate (81:15:4) solution, 1.5 mg/kg transdermal (abdomen) 1 h before 2 μg TPA (back), 1.5 mg/kg) | transdermal potency compared with s.c. administration in abolishing TPA-stimulated hyperplasia (mice) | transdermal dose that suppresses TPA-stimulated epidermal [3H]thymidine incorporation and/or epidermal DNA content (topical solutions and suspension applied to abdomen) [mg/kg] | cpm/μg DNA (TPA 2 μg (back) after carbitol vehicle only)
1 | C[C@]12CCCCC1=CC[C@@H]1[C@@H]2CC[C@]2(C)C(=O)[C@H](F)C[C@@H]12 [Fluasterone, 16α-fluoro-5-androsten-17-one] | 507.3 cpm/μg DNA and 414.3 cpm/μg DNA and 460.1 ± 65.8 cpm/μg DNA | 116.7 cpm/μg DNA and 147.4 cpm/μg DNA and 132.1 ± 21.7 cpm/μg DNA | ≤ 2.5 | 365.9 cpm/μg DNA and 227.7 cpm/μg DNA and 296.8 ± 97.7 cpm/μg DNA | 533.8 cpm/μg DNA and 467.1 cpm/μg DNA and 500.5 ± 47.2 cpm/μg DNA | 226.9 cpm/μg DNA and 147.5 cpm/μg DNA | as potent as subcutaneous injection | 2.5 | 
2 | CCCCCCCCCCCCCC(=O)O[C@@H]1[C@@H](C)[C@@]2(O)[C@@H](C=C(CO)C[C@]3(O)C(=O)C(C)=C[C@@H]23)[C@@H]2C(C)(C)[C@]12OC(C)=O [TPA, 12-O-tetradecanoylphorbol-13-acetate, reference compound] |  |  |  |  |  |  |  |  | 331.5 cpm/μg DNA and 353.6 cpm/μg DNA and 342.6 ± 15.6 cpm/μg DNA
